Patent US9255094B2, “Pyrido[4,3-B]indoles and methods of use” (Medivation Technologies, Inc., priority 2009, dated 2016)

What was measured:
[1] = target: T1, rat adrenergic α1A receptor (Rattus norvegicus, UniProt P43140); experiment: Adrenergic α1A radioligand binding assay ([3H]Prozosin); conditions: compound at 0.1 μM; 0.25 nM [3H]Prozosin; Wistar Rat submaxillary glands; read-out: Percent Inhibition of ligand binding, Adrenergic (0.1 μM) a1A
T1 construct: from tissue; host or cells: Wistar Rat submaxillary glands
T1 sequence (P43140 1-466): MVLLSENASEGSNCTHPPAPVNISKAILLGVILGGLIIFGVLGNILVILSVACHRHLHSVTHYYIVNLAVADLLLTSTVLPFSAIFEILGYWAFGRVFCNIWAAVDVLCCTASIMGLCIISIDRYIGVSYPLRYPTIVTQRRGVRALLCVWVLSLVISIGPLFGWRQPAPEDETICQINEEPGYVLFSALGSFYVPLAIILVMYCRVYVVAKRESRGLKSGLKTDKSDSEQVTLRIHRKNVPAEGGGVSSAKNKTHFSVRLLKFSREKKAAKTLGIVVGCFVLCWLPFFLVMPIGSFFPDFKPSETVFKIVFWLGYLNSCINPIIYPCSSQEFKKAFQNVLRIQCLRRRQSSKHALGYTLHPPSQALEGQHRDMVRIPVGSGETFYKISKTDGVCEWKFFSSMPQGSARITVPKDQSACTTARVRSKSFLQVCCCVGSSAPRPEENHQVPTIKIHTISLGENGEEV
Method: To evaluate in radioligand binding assays the activity of compounds of the invention, rat adrenergic α1A receptor obtained from Wistar Rat submaxillary glands (Michel, A. D. et al., Br. J. Pharmacol. 98:883, 1989) in a modified Tris-HCl buffer (50 mM Tris-HCl buffer, pH 7.4, 0.5 mM EDTA) is used. Compounds of the invention are incubated with 0.25 nM [^3H]Prozosin for 60 min at 25° C. Non-specific binding is estimated in the presence of 10 μM phentolamine. Receptor proteins are filtered and washed, the filters are then counted to determine [^3H]Prozosin specifically bound. Compounds of the invention are screened at 1 μM or lower, using 1% DMSO as vehicle. Compounds of the invention are tested in this biochemical assay and percent inhibition of specific binding is determined.

[2] = target: T2, human recombinant serotonin (5-Hydroxytryptamine) 5-HT2A receptor (Homo sapiens, UniProt P28223); experiment: Serotonin 5-HT2A radioligand binding assay ([3H]Ketanserin); conditions: 0.5 nM [3H]Ketanserin, CHO-K1 cells; for inhibition at 1 µM: read-out: Percent Inhibition of ligand binding, Serotonin (1 μM) 5-HT2A
T2 construct: expressed in transfected cells; host or cells: Chinese hamster ovary (CHO-K1) cells
Method: (§1) Compounds of the invention were incubated with 0.5 nM [^3H]Ketanserin for 60 min at 25° C. Non-specific binding was estimated in the presence of 1 μM Mianserin. Receptor proteins were filtered and washed, the filters were then counted to determine [^3H]Ketanserin specifically bound. Compounds were screened at 1 μM or lower, using 1% DMSO as vehicle. Biochemical assay results are presented as the percent inhibition of specific binding in Table 4.

[3] = target: T3, human recombinant adrenergic α2C receptor (Homo sapiens, UniProt P18825); experiment: Adrenergic α2C radioligand binding assay ([3H]MK-912); conditions: compound at 0.1 μM; 1 nM [3H]MK-912; insect Sf9 cells; read-out: Percent Inhibition of ligand binding, Adrenergic (0.1 μM) a2C
T3 construct: expressed in transfected cells; host or cells: insect Sf9 cells
T3 sequence (P18825 1-462): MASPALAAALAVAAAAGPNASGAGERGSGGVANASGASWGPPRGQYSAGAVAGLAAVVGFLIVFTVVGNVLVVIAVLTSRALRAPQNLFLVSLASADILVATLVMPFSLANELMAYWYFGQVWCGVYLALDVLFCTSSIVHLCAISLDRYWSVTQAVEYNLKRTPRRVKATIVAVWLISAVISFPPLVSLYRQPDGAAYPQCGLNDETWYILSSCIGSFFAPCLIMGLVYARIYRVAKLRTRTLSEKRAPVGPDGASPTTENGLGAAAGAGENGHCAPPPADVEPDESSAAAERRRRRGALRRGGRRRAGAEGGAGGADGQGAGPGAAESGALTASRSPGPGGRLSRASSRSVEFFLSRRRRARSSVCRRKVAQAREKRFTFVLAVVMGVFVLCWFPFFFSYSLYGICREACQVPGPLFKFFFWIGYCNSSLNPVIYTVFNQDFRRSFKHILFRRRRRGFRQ
Method: To evaluate in radioligand binding assays the activity of compounds of the invention, human recombinant adrenergic α2C receptor expressed in insect Sf9 cells (Uhlen S et al. J. Pharmacol. Exp. Ther. 271:1558, 1994) in a modified Tris-HCl buffer (50 mM Tris-HCl, pH 7.4, 12.5 mM MgCl2, 2 mM EDTA) is used. Compounds of the invention are incubated with 1 nM [^3H]MK-912 for 60 min at 25° C. Non-specific binding is estimated in the presence of 10 μM WB-4101. Receptor proteins are filtered and washed, the filters are then counted to determine [^3H]MK-912 specifically bound. Compounds are screened at 1 μM or lower, using 1% DMSO as vehicle. Compounds of the invention are tested in this biochemical assay and percent inhibition of specific binding is determined.

[4] = target: T4, human recombinant adrenergic α1D receptor (Homo sapiens, UniProt P25100); experiment: Adrenergic α1D radioligand binding assay ([3H]Prozosin); conditions: compound at 1 μM; 0.6 nM [3H]Prozosin; HEK-293 cells; read-out: Percent Inhibition of ligand binding, Adrenergic (1 μM) a1D
T4 construct: expressed in transfected cells; host or cells: human embryonic kidney (HEK-293) cells
T4 sequence (P25100 1-572): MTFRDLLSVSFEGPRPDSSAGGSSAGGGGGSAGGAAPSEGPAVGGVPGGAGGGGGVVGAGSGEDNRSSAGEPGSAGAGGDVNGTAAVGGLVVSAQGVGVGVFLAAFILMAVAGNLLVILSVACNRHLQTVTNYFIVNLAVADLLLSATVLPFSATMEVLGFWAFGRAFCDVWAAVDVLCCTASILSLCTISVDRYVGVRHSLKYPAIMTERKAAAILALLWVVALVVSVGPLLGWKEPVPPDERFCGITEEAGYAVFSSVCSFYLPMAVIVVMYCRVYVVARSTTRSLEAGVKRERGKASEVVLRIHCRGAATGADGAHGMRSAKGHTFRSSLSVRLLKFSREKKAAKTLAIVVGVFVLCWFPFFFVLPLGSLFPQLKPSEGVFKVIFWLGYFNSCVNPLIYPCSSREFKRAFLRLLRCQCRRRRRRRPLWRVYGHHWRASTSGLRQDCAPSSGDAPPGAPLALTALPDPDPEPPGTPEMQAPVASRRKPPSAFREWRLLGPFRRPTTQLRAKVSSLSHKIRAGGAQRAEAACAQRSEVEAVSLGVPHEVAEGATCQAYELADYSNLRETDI
Method: Compounds of invention were incubated with 0.6 nM [^3H]Prozosin for 60 min at 25° C. Non-specific binding was estimated in the presence of 10 μM phentolamine Receptor proteins were filtered and washed, the filters were then counted to determine [^3H]Prozosin specifically bound.

[5] = target: T5, human recombinant serotonin (5-Hydroxytryptamine) 5-HT2C receptor (Homo sapiens, UniProt P28335); experiment: Serotonin 5-HT2C radioligand binding assay ([3H]Mesulergine); conditions: compound at 1 μM; 1 nM [3H]Mesulergine; CHO-K1 cells
T5 construct: expressed in transfected cells; host or cells: Chinese hamster ovary (CHO-K1) cells
T5 sequence (P28335 33-458): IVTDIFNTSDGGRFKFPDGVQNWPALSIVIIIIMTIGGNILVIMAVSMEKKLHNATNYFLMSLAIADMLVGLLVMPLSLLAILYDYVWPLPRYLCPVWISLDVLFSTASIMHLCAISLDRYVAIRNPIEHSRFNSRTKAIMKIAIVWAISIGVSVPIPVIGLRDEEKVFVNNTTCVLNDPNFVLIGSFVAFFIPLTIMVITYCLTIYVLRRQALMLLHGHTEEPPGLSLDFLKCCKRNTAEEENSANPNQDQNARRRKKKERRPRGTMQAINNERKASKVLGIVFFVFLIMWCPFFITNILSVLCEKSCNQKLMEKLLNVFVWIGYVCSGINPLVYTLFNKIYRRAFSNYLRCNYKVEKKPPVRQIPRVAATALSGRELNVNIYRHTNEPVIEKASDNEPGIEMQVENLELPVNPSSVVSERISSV
Method: as §1, with “1” for “0.5”, “[^3H]Mesulergine” for “[^3H]Ketanserin”

[6] = target: T6, human recombinant serotonin (5-Hydroxytryptamine) 5-HT6 receptor (Homo sapiens, UniProt P50406); experiment: Serotonin 5-HT6 radioligand binding assay ([3H]LSD); conditions: compound at 1 μM, HeLa cells
T6 construct: expressed in transfected cells; host or cells: human HeLa cells
Method: (§2) Compounds of the invention were incubated with 1.5 nM [3H]Lysergic acid diethylamide (LSD) for 120 min at 37° C. […] Receptor proteins were filtered and washed, the filters were then counted to determine [3H]LSD specifically bound. Compounds were screened at 1 μM or lower, using 1% DMSO as vehicle. Biochemical assay results are presented as the percent inhibition of specific binding in Table 4.

[7] = target: human recombinant serotonin (5-Hydroxytryptamine) 5-HT7 receptor (Homo sapiens, UniProt P34969); experiment: Serotonin 5-HT7 radioligand binding assay ([3H]LSD); conditions: compound at 1 μM; 5.5 nM [3H]LSD; CHO cells
Method: as §2, with “of” for “of the”, “5.5” for “1.5”, “[^3H] Lysergic” for “[3H]Lysergic”, “2 h” for “120 min”, “25°” for “37°”, “[^3H]LSD” for “[3H]LSD”

[8] = target: human recombinant histamine H1 receptor (Homo sapiens, UniProt P35367); experiment: Histamine H1 radioligand binding assay ([3H]Pyrilamine); conditions: compound at 1 μM, receptor expressed in CHO cells
Method: To evaluate in radioligand binding assays the activity of compounds of the invention, human recombinant histamine H1 receptor expressed in Chinese hamster ovary (CHO) cells (De Backer, M. D. et al., Biochem. Biophys. Res. Comm. 197(3):1601, 1993) in a modified Tris-HCl buffer (50 mM Tris-HCl, pH 7.4, 2 mM MgCl2, 100 mM NaCl, 250 mM Sucrose) was used. Compounds of the invention were incubated with 1.2 nM [^3H]Pyrilamine for 180 min at 25° C. Non-specific binding was estimated in the presence of 1 μM pyrilamine Receptor proteins were filtered and washed, the filters were then counted to determine [^3H]Pyrilamine specifically bound. Compounds were screened at 1 μM or lower, using 1% DMSO as vehicle. Biochemical assay results are presented as the percent inhibition of specific binding in Table 2.

T2 sequence (P28223 whole entry): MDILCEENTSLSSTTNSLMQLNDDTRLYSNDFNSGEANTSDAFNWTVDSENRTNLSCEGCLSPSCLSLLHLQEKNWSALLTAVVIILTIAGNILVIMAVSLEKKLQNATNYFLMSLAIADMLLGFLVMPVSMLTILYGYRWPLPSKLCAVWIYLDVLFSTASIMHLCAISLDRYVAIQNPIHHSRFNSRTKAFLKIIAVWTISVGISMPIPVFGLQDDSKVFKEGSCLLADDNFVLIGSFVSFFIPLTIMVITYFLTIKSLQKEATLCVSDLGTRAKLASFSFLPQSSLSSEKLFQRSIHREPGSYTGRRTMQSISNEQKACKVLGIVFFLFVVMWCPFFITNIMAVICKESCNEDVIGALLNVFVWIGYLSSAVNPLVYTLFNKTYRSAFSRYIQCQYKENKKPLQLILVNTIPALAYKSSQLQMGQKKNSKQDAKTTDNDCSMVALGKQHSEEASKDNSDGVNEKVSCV
Sequence of human recombinant serotonin (5-Hydroxytryptamine) 5-HT7 receptor (P34969 whole entry): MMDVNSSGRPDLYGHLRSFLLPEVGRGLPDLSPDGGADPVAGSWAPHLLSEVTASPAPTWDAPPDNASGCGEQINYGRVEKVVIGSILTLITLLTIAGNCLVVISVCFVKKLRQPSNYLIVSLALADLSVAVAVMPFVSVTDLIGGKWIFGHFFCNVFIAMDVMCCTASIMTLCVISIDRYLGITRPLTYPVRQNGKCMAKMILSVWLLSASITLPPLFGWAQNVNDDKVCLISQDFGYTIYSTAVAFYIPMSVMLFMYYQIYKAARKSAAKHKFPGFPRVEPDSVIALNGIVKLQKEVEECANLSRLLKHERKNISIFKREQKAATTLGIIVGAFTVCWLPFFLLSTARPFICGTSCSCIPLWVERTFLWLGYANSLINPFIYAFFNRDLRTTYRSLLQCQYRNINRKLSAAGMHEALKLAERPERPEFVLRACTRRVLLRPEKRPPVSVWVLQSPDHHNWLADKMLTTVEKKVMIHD
Sequence of human recombinant histamine H1 receptor (P35367 whole entry): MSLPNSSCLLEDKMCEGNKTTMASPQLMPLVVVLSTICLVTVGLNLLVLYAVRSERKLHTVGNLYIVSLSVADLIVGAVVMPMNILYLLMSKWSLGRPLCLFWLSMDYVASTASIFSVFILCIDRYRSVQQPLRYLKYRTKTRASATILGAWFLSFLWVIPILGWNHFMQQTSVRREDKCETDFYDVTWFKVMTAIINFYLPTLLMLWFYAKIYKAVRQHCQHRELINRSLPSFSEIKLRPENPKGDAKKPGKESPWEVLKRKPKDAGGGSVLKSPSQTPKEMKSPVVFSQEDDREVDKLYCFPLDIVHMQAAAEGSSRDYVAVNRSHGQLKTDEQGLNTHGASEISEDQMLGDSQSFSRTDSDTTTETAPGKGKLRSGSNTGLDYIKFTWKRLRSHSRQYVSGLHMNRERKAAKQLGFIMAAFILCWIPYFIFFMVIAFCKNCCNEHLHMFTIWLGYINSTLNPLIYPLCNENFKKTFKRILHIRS
T6 sequence (P50406 whole entry): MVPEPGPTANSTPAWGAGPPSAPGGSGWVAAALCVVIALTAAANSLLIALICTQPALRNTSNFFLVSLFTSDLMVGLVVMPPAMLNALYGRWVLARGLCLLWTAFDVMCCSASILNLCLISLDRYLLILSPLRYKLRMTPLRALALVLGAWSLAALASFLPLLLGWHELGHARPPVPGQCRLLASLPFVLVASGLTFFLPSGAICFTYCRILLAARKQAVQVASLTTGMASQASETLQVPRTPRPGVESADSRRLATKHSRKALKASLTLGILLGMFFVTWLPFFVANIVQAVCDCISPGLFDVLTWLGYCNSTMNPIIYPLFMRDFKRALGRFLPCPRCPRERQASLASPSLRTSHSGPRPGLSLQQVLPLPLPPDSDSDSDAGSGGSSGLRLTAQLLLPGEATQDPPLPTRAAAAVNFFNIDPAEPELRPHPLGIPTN

| SMILES | inhibition at 0.1 µM [1] [%] | inhibition at 0.1 µM ([2]; compound at 0.1 μM, read-out: Percent Inhibition of ligand binding, Serotonin (0.1 μM) 5-HT2A) [%] | inhibition at 0.1 µM [3] [%] | inhibition at 1 µM ([2]; compound at 1 μM) [%] | inhibition at 1 µM [4] [%] | Percent Inhibition of ligand binding, Serotonin (1 μM) 5-HT2C [5] [%] | Percent Inhibition of ligand binding, Serotonin (1 μM) 5-HT6 [6] [%] | Percent Inhibition of ligand binding, Serotonin (1 μM) 5-HT7 [7] [%] | Binding Data (% Inhibition) Histamine Binding (1μM) H1 [8] [%] | Percent Inhibition of ligand binding, Serotonin (1 μM) 5-HT2A ([2]; compound at 1 μM) [%] |
| --- | --- | --- | --- | --- | --- | --- | --- | --- | --- | --- |
| COc1ccc([C@@](C)(O)Cn2c3c(c4cc(C)ccc42)CN(C)CC3)cc1 [Compound 1-19, (R)-1-(2,8-Dimethyl-3,4-dihydro-1H-pyrido[4,3-b]indol-5(2H)-yl)-2-(4-methoxyphenyl)propan-2-ol] | 20 | 98 | 16 | – | – | – | – | – | – | – |
| CN1CCc2c(c3cccc(Cl)c3n2CC(C)(O)c2ccncc2)C1 (stereo not shown) [Compound 1-10, 1-(6-chloro-2-methyl-3,4-dihydro-1H-pyrido[4,3-b]indol-5(2H)-yl)-2-(pyridin-4-yl)propan-2-ol] | -8 | – | 19 | 91 | – | – | – | – | – | – |
| COc1ccc(C(C)(O)Cn2c3c(c4cc(C)ccc42)CN(C)CC3)cc1 (stereo not shown) [Compound 1-4, 1-(2,8-dimethyl-3,4-dihydro-1H-pyrido[4,3-b]indol-5(2H)-yl)-2-(4-methoxyphenyl)propan-2-ol] | – | – | – | 97 | 57 | 98 | 87 | 98 | 43 | 100 |
